In ChEMBL document CHEMBL4138293, “Modified Abietane Diterpenoids from Whole Plants of Selaginella moellendorffii” (J Nat Prod, 2018):
Active and inactive are the calls of the source. No cut-off for these calls is given here.

Tests used:
Format in all cases: functional, cell-based
[1] = test system: SW480; assay: Growth inhibition of human SW480 cells after 48 hrs by MTS assay
[2] = test system: SMMC-7721; assay: Growth inhibition of human SMMC7721 cells after 48 hrs by MTS assay
[3] = test system: MCF7; assay: Growth inhibition of human MCF7 cells after 48 hrs by MTS assay
[4] = test system: A549; assay: Growth inhibition of human A549 cells after 48 hrs by MTS assay
[5] = test system: HL-60; assay: Growth inhibition of human HL60 cells after 48 hrs by MTS assay

IC50 ([3]; MCF7, 48 h) | IC50 ([1]; SW480, 48 h) | IC50 ([2]; SMMC-7721, 48 h) | IC50 ([5]; HL-60, 48 h) | Structure (SMILES) | growth inhibition (GI) [1] | growth inhibition (GI) [2] | growth inhibition (GI) [3] | growth inhibition (GI) [4] | growth inhibition (GI) [5]
– | – | – | – | C=C1[C@@H]2CC(=O)c3cc(C(C)C)c(O)cc3[C@@]2(C)CC(=O)[C@]12CCC1=C(C2)C2=CC(=O)c3cc(C(C)C)c(O)cc3[C@@]2(C)C[C@@H]1O | inactive | inactive | inactive | inactive | inactive
9000 nM | – | – | – | C=C1[C@@H]2CC(=O)c3cc(C(C)C)c(O)cc3[C@@]2(C)CC(=O)[C@]12CCC1=C(C2)[C@@H]2CC(=O)c3cc(C(C)C)c(O)cc3[C@@]2(C)C[C@@H]1O | inactive | inactive | – | inactive | inactive
– | – | – | – | CC(C)c1cc2c(cc1O)[C@@]1(C)CC[C@](C)(O)[C@@](O)(CO)[C@@H]1CC2=O | inactive | inactive | inactive | inactive | inactive
– | < 8 nM | < 8 nM | < 8 nM | CC(=O)O[C@H]1C(=O)[C@@]2(C)[C@H]([C@H](OC(=O)c3ccccc3)[C@]3(O)C[C@H](OC(=O)[C@H](O)[C@@H](NC(=O)c4ccccc4)c4ccccc4)C(C)=C1C3(C)C)[C@]1(OC(C)=O)CO[C@@H]1C[C@@H]2O [PACLITAXEL] | – | – | – | – | –
